Measurements taken from patent US20130158041A1, “Tyrosine Kinase Inhibitors” (priority 2010, published 2013).
pIC50: −log10 of the molar value.

These compounds were tested on HGF-dependent scattering phenotype of HPAF-II cells (assay: HPAF scatter assay). Settings: Homo sapiens, 4 ng/ml HGF, 22 hrs, read-out: inhibitory activity (IC50), scattering phenotype.
Assay type: cell-based
Procedure: The ability of compounds to inhibit the HGF-dependent scattering phenotype of HPAF-II cells was measured using a modified version of the assay described by Chan et al. 2008 (Chan et al. J. Biomolec. Screening 2008; 13:847-854). Briefly, HPAF-II cells (ATCC #CRL1997) were plated in 50 uL DMEM (#11995)+10% FBS+P/S at a density of 3,000 cells/well in Costar black clear bottom 384-well plates [Product no. 3712] and incubated at 37° C. overnight. The next day, […] of serially diluted compound in DMSO was added to each well in the cell plate to give a nine-point 1:3 dilution series with final concentrations ranging from 20 uM to 3 nM. Cells were preincubated with compound at 37° C. for one hour. To stimulate the scattering phenotype, 10 uL of 24 ng/ml HGF (R&D Systems 294-HGN) was next added to each well, giving a final concentration of 4 ng/ml HGF. Cells were incubated with both compound and HGF at 37° C. for an additional 22 hrs. Control […] wells without compound treatment and control wells without HGF or compound were included on each plate. Next, to visualize the cells, each plate was washed in PBS 1×, fixed in ice cold methanol for 3 min at RT, washed in PBS 3×, stained with Hoechst (1:2500) in PBS/0.1% Triton for 15 min in the dark, and finally washed in PBS 4× before imaging on an INCell Analyzer 1000 (GE Healthcare). Individual cell by cell SOI internuclear distance information was exported and then processed using a Pipeline Pilot (Accelrys) protocol to calculate the percentage of scattered cells. The percent inhibition of the scattering phenotype was calculated relative to cells without compound treatment, plotted against the log of compound concentration and then fit to a four parameter logistic fit to obtain IC50 values.

pIC50, 6.26 to 7.82:
Cn1cc(-c2cnc3ccc(OCc4nn(-c5cnn(C)c5)ccc4=S)cc3c2)cn1 [Example 21, 1-(1-methyl-1H-pyrazol-4-yl)-3-({[3-(1-methyl-1H-pyrazol-4-yl)quinolin-6-yl]oxy}methyl)pyridazin-4(1H)-thione]
CCCn1cnc(-c2cccc(Cc3nn(-c4cnn(CC)c4)ccc3=S)c2)n1 [Example 5, 1-(1-ethyl-1H-pyrazol-4-yl)-3-[3-(1-propyl-1H-1,2,4-triazol-3-yl)benzyl]pyridazin-4(1H)-thione]
COCCOc1cnc(-c2cccc(Cc3nn(-c4cnn(C)c4)ccc3=S)c2)nc1 [Example 3, 3-{3-[5-(2-methoxyethoxy)pyrimidin-2-yl]benzyl}-1-(1-methyl-1H-pyrazol-4-yl)pyridazin-4(1H)-thione]
CCOc1cnc2ccc(OCc3nn(-c4cnn(C)c4)ccc3=S)cc2c1 [Example 19, 3-{[(3-Ethoxyquinolin-6-yl)oxy]methyl}-1-(1-methyl-1H-pyrazol-4-yl)pyridazin-4(1H)-thione]
COCCOC(=O)Nc1cccc(Cc2nn(-c3cnn(C)c3)ccc2=S)c1 [Example 8, 2-methoxyethyl (3-{[1-(1-methyl-1H-pyrazol-4-yl)-4-thioxo-1,4-dihydropyridazin-3-yl]methyl}phenyl)carbamate]
